Reference: paper PMC5474694, “Fragment-Sized EthR Inhibitors Exhibit Exceptionally Strong Ethionamide Boosting Effect in Whole-Cell Mycobacterium tuberculosis Assays” (ACS Chemical Biology, 2017)

Legend:
M. tuberculosis [1] = system: M. tuberculosis; design: method as in PMID 24313835; conditions: cited from earlier work
M. tuberculosis [2] = format: cell-based, Mycobacterium tuberculosis (ATCC 27294); conditions: for MEC (minimum effective concentration) / ethionamide boosting ability in M. tuberculosis culture / MEC for the 10-fold boosting of ethionamide: in the presence of 1/10 of the MIC of ethionamide; for MEC (minimum effective concentration): mean ± standard deviation of two independent replicates; for fold improvement in MEC on the starting fragment 1: relative to fragment 1; for fold drop in potency (MEC) on addition of an extra methylene unit to the linker: 15 relative to 14, 29 relative to 28
[3] = system: M. tuberculosis infected murine macrophages; experiment: Macrophage (intracellular) assay; format: cell-based, M. tuberculosis H37Rv-GFP in Raw264.7 macrophages; conditions: for concentrations at which intrinsic bactericidal activity against M. tuberculosis is seen: compound alone, without ethionamide; for IC50 / EC50: Mycobacterium tuberculosis, Macrophage; for IC50: in the absence of ethionamide, read-out: IC50, intrinsic bactericidal effect; for EC50: in the presence of 1/10 of the MIC of ethionamide
EthR = EthR (Mycobacterium tuberculosis, UniProt P9WMC1); experiment: Isothermal titration calorimetry (ITC) binding to EthR; conditions: n = 1, one site binding model
Protocol: Isothermal titration calorimetry (ITC)
An aqueous solution of the fragment to be tested (1 mM) was prepared containing NaCl (300 mM), Tris.HCl (20 mM, pH = 8.0), d6-DMSO (10% v/v) and glycerol (to match the 10% v/v glycerol content in the EthR stock solution). A separate aqueous solution of EthR (50 μM) containing NaCl (300 mM), Tris.HCl (20 mM, pH = 8.0) and DMSO-d6 (10% v/v) was prepared and placed in the sample cell of a MicroCal iTC200 microcalorimeter (GE Healthcare). The fragment solution was then titrated to the EthR solution over 19 or 39 injections (first injection of 0.4 μl and subsequent injections of 2.0 μL or 1.0 μL). Data was fitted to a one site binding model using Origin software.
Figure S10 ITC trace for cyclopentylmethyl pyrrolidine-1-carboxylate 2 binding to EthR.
(1 picture or pasted object on this page, not shown here)

EthR, sequence (P9WMC1 whole entry, looked up): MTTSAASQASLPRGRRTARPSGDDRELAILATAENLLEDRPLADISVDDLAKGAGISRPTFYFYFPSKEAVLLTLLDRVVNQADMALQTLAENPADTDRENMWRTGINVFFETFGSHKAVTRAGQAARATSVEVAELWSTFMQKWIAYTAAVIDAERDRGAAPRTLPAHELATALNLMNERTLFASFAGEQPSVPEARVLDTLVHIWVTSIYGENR

SMILES: CCc1cc(C(N)=S)ccn1 [ethionamide]
- MIC of ethionamide (M. tuberculosis [1]; ethionamide alone): 15 µM

SMILES: O=C(OCC1CCC1)N1CCCC1 [Compound 24]
- MEC (minimum effective concentration) (M. tuberculosis [2]): 3.1 ± 1.8 µM

SMILES: O=C(CCC1CCCCC1)N1CCCC1 [Compound 13]
- MEC (minimum effective concentration) (M. tuberculosis [2]): 0.8 ± 0.5 µM
- fold improvement in MEC on the starting fragment 1 (M. tuberculosis [2]): approximately 4 fold

SMILES: O=C(OCCC1CCCC1)N1CCCC1 [Compound 22]
- MEC (minimum effective concentration) (M. tuberculosis [2]): 1.6 ± 0.9 µM
- ethionamide boosting in the macrophage assay [3]: significant boosting of ethionamide
- concentrations at which intrinsic bactericidal activity against M. tuberculosis is seen [3]: higher than 1 μM

SMILES: O=C(/C=C/c1ccoc1)N1CCCC1 [Compound 7]
- MEC (minimum effective concentration) (M. tuberculosis [2]): >50 µM
- Kd (EthR): 20 µM

SMILES: O=C(OCC1CCCC1)N1CCCC1 [Compound 2, cyclopentylmethyl pyrrolidine-1-carboxylate]
- MEC (minimum effective concentration) (M. tuberculosis [2]): 19 ± 7.5 µM
- Kd (EthR): 15 µM

SMILES: O=S(=O)(NCC1CCCC1)N1CCCC1 [Compound 6]
- MEC (minimum effective concentration) (M. tuberculosis [2]): >50 µM
- Kd (EthR): 20 µM

SMILES: O=C(OCC1CCCC1)N1CCC1 [Compound 27]
- MEC (minimum effective concentration) (M. tuberculosis [2]): 13 ± 7.2 µM

SMILES: O=C(CC1CCCC1)N1CCCC1 [Compound 12]
- MEC (minimum effective concentration) (M. tuberculosis [2]): 19 ± 7.5 µM

SMILES: O=C(NCC1CCCC1)N1CCCC1 [Compound 3]
- MEC (minimum effective concentration) (M. tuberculosis [2]): >50 µM
- Kd (EthR): 6 µM

SMILES: O=C(NCc1ccoc1)N1CCCC1 [Compound 9]
- MEC (minimum effective concentration) (M. tuberculosis [2]): >50 µM

SMILES: O=C(OCC1CCCC1)N1CCCCC1 [Compound 20]
- ethionamide boosting ability in M. tuberculosis culture (M. tuberculosis [2]): loss of ethionamide boosting ability
- MEC (minimum effective concentration) (M. tuberculosis [2]): > 50 µM

SMILES: O=C(OCC1CCCCC1)N1CCCC1 [Compound 25]
- MEC (minimum effective concentration) (M. tuberculosis [2]): 1.6 ± 0.9 µM
- ethionamide boosting in the macrophage assay [3]: significant boosting of ethionamide
- concentrations at which intrinsic bactericidal activity against M. tuberculosis is seen [3]: higher than 1 μM

SMILES: O=C(CCCC1CCCCC1)N1CCCC1 [Compound 14]
- MEC for the 10-fold boosting of ethionamide (M. tuberculosis [2]): 400 nM
- MEC (minimum effective concentration) (M. tuberculosis [2]): 0.4 ± 0.2 µM
- fold improvement in MEC on the starting fragment 1 (M. tuberculosis [2]): approximately 7 fold
- IC50 [3]: ~1 µM
- EC50 [3]: 0.04 µM

SMILES: O=C(OCC1CC1)N1CCCC1 [Compound 23]
- MEC (minimum effective concentration) (M. tuberculosis [2]): 3.1 ± 1.8 µM
- ethionamide boosting in the macrophage assay [3]: significant boosting of ethionamide

SMILES: O=C(CC12CC3CC(CC(C3)C1)C2)N1CCCC1 [Compound 17]
- fold increase in ethionamide boosting ability (M. tuberculosis [2]; 17 relative to the inactive amide 16): over 30 fold
- MEC (minimum effective concentration) (M. tuberculosis [2]): 1.6 ± 0.8 µM

SMILES: O=C(OCCCC1CCCC1)N1CCCC1 [Compound 28]
- MEC for the 10-fold boosting of ethionamide (M. tuberculosis [2]): 400 nM
- MEC (minimum effective concentration) (M. tuberculosis [2]): 0.4 ± 0.2 µM
- fold improvement in MEC on the starting fragment 1 (M. tuberculosis [2]): roughly 7 fold
- IC50 [3]: ~1 µM
- EC50 [3]: 0.05 µM

SMILES: O=C(OCCCCC1CCCCC1)N1CCCC1 [Compound 29]
- fold drop in potency (MEC) on addition of an extra methylene unit to the linker (M. tuberculosis [2]): roughly 16 fold
- MEC (minimum effective concentration) (M. tuberculosis [2]): 6.3 ± 3.6 µM

SMILES: O=C(N1CCCC1)C12CC3CC(CC(C3)C1)C2 [Compound 16]
- MEC (minimum effective concentration) (M. tuberculosis [2]): > 50 µM

SMILES: CCCCC(=O)N1CCCC1 [Compound 18]
- MEC (minimum effective concentration) (M. tuberculosis [2]): > 50 µM

SMILES: O=C(NCC1CCOC1)N1CCCC1 (centres unmarked) [Compound 10]
- MEC (minimum effective concentration) (M. tuberculosis [2]): >50 µM

SMILES: O=S(=O)(CCC1CCCC1)N1CCCC1 [Compound 5]
- MEC (minimum effective concentration) (M. tuberculosis [2]): >50 µM
- Kd (EthR): 16 µM

SMILES: O=C(CCC1CCCC1)N1CCCC1 [Compound 1]
- ethionamide boosting in the macrophage assay [3]: significant boosting of ethionamide
- concentrations at which intrinsic bactericidal activity against M. tuberculosis is seen [3]: higher than 1 μM
- MIC of ethionamide in the presence of fragment 1 (M. tuberculosis [1]; fragment 1 at a concentration of 1 μM): approximately 2 μM

SMILES: O=C(CCc1ccoc1)N1CCCC1 [Compound 8]
- MEC (minimum effective concentration) (M. tuberculosis [2]): >50 µM
- Kd (EthR): 22 µM

SMILES: O=C(NCC1CCCC1)C1CCCC1 [Compound 4]
- MEC (minimum effective concentration) (M. tuberculosis [2]): >50 µM
- Kd (EthR): 11 µM

SMILES: CC(C)(C)OC(=O)N1CCCC1 [Compound 30, Boc-pyrrolidine]
- MEC (minimum effective concentration) (M. tuberculosis [2]): > 50 µM

SMILES: CCCC(=O)N1CCCC1 [Compound 19]
- MEC (minimum effective concentration) (M. tuberculosis [2]): > 50 µM

SMILES: O=C(OCC1CCCC1)N1CCCCCC1 [Compound 21]
- ethionamide boosting ability in M. tuberculosis culture (M. tuberculosis [2]): loss of ethionamide boosting ability
- MEC (minimum effective concentration) (M. tuberculosis [2]): > 50 µM

SMILES: O=C(CCCCC1CCCCC1)N1CCCC1 [Compound 15]
- fold drop in potency (MEC) on addition of an extra methylene unit to the linker (M. tuberculosis [2]): 4 fold
- MEC (minimum effective concentration) (M. tuberculosis [2]): 1.6 ± 0.8 µM

SMILES: O=C(C1CCCC1)N1CCCC1 [Compound 11]
- MEC (minimum effective concentration) (M. tuberculosis [2]): > 50 µM

SMILES: CN(C)C(=O)OCC1CCCC1 [Compound 26]
- MEC (minimum effective concentration) (M. tuberculosis [2]): 6.3 ± 3.6 µM
